Series [1] concerns Hs578T. Put plainly: Wound healing migration assay. It counts as cell-based. The conditions noted are these: Homo sapiens, Hs-578T; HS578T cell line; Table Ib. The gist of the method: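 Cells seeded at 150000/24 well, grown to monolayer overnight, scratched with a pipette tip, then treated with compound at 12.5, 6.25 or 3.125 μM versus DMSO. Stopped by crystal violet fixation at 48-72 h once control wounds closed; IC50 taken as 50% wound size between t0 and t48 or t72.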

Series [2] has as its target T1, wild type AXL (wtAXL) receptor tyrosine kinase (Homo sapiens, UniProt P30530).
T1 construct: WtAXL cDNA was cloned into vector pLXSN(ESK) and transfected into Phoenix E packaging cells; expressed in transfected cells; host or cells: NIH3T3 N7 (mouse fibroblasts), retrovirally infected, clone 22
T1 sequence (P30530 26-894): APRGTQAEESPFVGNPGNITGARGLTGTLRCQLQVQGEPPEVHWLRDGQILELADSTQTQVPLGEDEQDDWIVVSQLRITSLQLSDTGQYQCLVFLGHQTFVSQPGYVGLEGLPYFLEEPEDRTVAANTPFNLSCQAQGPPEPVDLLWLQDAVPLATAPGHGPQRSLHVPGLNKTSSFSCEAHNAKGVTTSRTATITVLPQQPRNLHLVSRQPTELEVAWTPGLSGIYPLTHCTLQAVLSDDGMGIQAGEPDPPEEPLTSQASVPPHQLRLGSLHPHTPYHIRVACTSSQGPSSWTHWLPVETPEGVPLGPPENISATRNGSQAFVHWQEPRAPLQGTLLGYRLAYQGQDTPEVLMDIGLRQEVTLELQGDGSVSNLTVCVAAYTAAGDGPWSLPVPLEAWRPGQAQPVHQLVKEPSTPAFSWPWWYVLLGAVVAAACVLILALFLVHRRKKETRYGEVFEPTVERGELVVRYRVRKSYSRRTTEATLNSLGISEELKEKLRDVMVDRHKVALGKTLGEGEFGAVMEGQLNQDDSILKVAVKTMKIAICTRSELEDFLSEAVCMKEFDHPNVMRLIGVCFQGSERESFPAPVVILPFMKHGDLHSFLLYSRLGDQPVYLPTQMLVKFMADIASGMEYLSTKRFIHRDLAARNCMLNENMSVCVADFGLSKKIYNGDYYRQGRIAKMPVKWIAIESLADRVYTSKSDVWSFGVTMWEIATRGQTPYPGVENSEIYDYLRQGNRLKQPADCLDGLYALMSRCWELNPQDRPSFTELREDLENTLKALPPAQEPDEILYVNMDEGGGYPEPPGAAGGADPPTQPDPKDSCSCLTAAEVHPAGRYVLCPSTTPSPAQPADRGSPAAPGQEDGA
Put plainly: NIH-3T3-AXL cellular kinase assay (pY-AXL-ELISA). In kind it is cell-based. As to conditions: NIH-3T3-AXL (clone 22) cells, serum depleted, compounds 1 h; Table Ia. How it is done:
WtAXL cDNA was cloned into vector pLXSN(ESK) and transfected into Phoenix E packaging cells. The viral supernatant was collected and used to infect target cells NIH3T3 N7. Monoclonal NIH3T3-AXL cell lines stably expressing wtAXL were generated by selecting retrovirally infected cells in medium containing puromycin (2 μg/ml) and subsequent clonal separation.
Serial dilutions of compounds were added, and the cells were further incubated for 1 h. Cells were washed with PBS and lysed on ice in 500 μl lysis buffer (50 mM HEPES (pH 7.5), 150 mM NaCl, 1 mM EGTA, 10% Glycerol, 1% Triton X-100, 100 mM NaF, 10 mM Na4P2O7.10H2O, 1 mM Na3VO4, 1 mM phenylmethylsulfonyl fluoride, and […]) for 15 min. The cell lysate were used for phosphotyrosine AXL enzyme-linked immunosorbant assay (pY-AXL-ELISA). […] Subsequently 96-well plates were blocked with PBS-0.05% Tween®20+10% FBS for 4 h at 37° C. Plates were washed 5 times with PBS-0.05% Tween®20 and 95 μl of lysate was transferred per well for incubation overnight at 4° C. Plates were washed 5 times with PBS-0.05% Tween®20 (Sigma, Steinheim, Germany). For detection of phosphorylated tyrosine we used homemade biotynilated 4G10-antibody (0.5 μg/ml) in PBS-0.05% Tween®20+10% FBS (100 μl/well) and incubated the 96-well plate for 2 h at room temperature. The anti-phosphotyrosine mouse monoclonal antibody 4G10 was biotynilated with Sulfo-NHS®-Biotin according to the suppliers protocol (Pierce, Rockford, Ill., USA) and purified by Mirco Bio-Spin 6 Chromatograpy Columns (BIO RAD Laboratories, Inc., Hercules, Calif., USA) using PBS as diluent. Plates were washed 5 times with PBS-0.05% Tween®20. For biding to biotin Alkaline Phosphatase Conjugated Strepavidin SA110 (Millipore, Billerica, Mass., USA) (1:4000) was used in PBS-0.05% Tween20+10% FBS (100 μl/well) and incubated for 30 min at room temperature. Plates were washed 5 times with PBS-0.05% Tween20. For fluorimetric detection of alkaline phosphatase AttoPhos Substrate Set (Roche diagnostics GmbH, Mannheim, Germany) was used (100 μl/well). The fluorimetric signal was quantified after 90 min at 430/560 nm wavelength using a TECAN Ultra Evolution plate reader (Tecan Deutschland GmbH, Crailsheim, Germany).
A general note: ELISA stands for enzyme-linked immunosorbent assay.

In series [3] the test system is Hs578T. Put plainly: Cell vitality assay (ATP assay, CellTiter-Glo). The conditions noted are these: Homo sapiens, Hs-578T; HS578T cell line, 72 h; Table Ib; read-out: IC50 ATP-Assay HS578T after 72 h. It counts as cell-based. The gist of the method: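 1000 cells/well incubated 72 h with compound at 12.5 down to 0.195 μM (twofold steps) or DMSO control. Viability measured as cellular ATP by CellTiter-Glo luminescence; IC50 taken as the concentration giving 50% of the DMSO-control ATP level.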
In general terms: Cellular ATP, detected with luciferase, serves as a proxy for viable cell number.

The subject of series [4] is Hs578T. The series is described as follows: Matrigel outgrowth assay/branching assay. In kind it is cell-based. As to conditions: Homo sapiens, Hs-578T; HS578T cell line; Table Ib; read-out: Total branching inhibition in Matrigel HS578T. The gist of the method: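 Step one: Matrigel (3 mg/ml) is set for 1 h at 37° C. Step two: 5000 cells per well go on in medium with compound (0.78–3.125 μM) or DMSO. Step three: images at 48, 72 and 96 h are scored for complete loss of branching.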

Structures are written as SMILES.

The term melting point denotes the temperature of the solid-liquid transition. In turn, `COc1cc2c(Oc3ccc(NS(=O)(=O)c4ccccc4[N+](=O)[O-])cc3F)ccnc2cc1OCCN1CCOCC1` [Example 109, N-{3-Fluoro-4-[6-methoxy-7-(2-morpholin-4-yl-ethoxy)-quinolin-4-yloxy]-phenyl}-2-nitro-benzenesulfonamide] returned a melting point of 129 to 131 °C. In the series on Hs578T [1], this compound returned an IC50 of 12.5 to 50 µM. Moreover, the IC50 in series [2] is less than 0.5 µM. For the same compound, in the series with Hs578T [3], the IC50 was no more than 12.5 µM. For the same compound, the IC50 in the series with Hs578T [4] was in the range of 10 to 25 µM.
The like results for `COc1cc2c(Oc3ccc(NS(=O)(=O)c4ccccc4F)cc3Cl)ccnc2cc1OCCCN1CCN(C)CC1` [Example 111, N-(3-Chloro-4-{6-methoxy-7-[3-(4-methyl-piperazin-1-yl)-propoxy]-quinolin-4-yloxy}-phenyl)-2-fluoro-benzenesulfonamide] were, in that order, 170 to 171 °C, no more than 12.5 µM, less than 0.5 µM, no more than 12.5 µM and no more than 10 µM.
For `COc1cc2c(Oc3ccc(NS(=O)(=O)c4csc5ccccc45)cc3F)ccnc2cc1OCCCN1CCCCC1` [Example 113, Benzo[b]thiophene-3-sulfonic acid {3-fluoro-4-[6-methoxy-7-(3-piperidin-1-yl-propoxy)-quinolin-4-yloxy]-phenyl}-amide] the same measures were 128 to 130 °C, no more than 12.5 µM, less than 0.5 µM, no more than 12.5 µM and no more than 10 µM.
For `COc1cc2c(Oc3ccc(NS(=O)(=O)c4csc5ccccc45)cc3F)ccnc2cc1OCCCN1CCOCC1` [Example 114, Benzo[b]thiophene-3-sulfonic acid {3-fluoro-4-[6-methoxy-7-(3-morpholin-4-yl-propoxy)-quinolin-4-yloxy]-phenyl}-amide] the same measures were 196 to 197 °C, 12.5 to 50 µM, less than 0.5 µM, no more than 12.5 µM and 10 to 25 µM.
`COc1cc2c(Oc3ccc(NS(=O)(=O)c4csc5ccccc45)cc3F)ccnc2cc1OCCCN1CCC(C)CC1` [Example 115, Benzo[b]thiophene-3-sulfonic acid (3-fluoro-4-{6-methoxy-7-[3-(4-methyl-piperidin-1-yl)-propoxy]-quinolin-4-loxy}-phenyl)-amide] gave a melting point of 132 to 135 °C. The same compound registered an IC50 with Hs578T [1] of no more than 12.5 µM. For the same compound, the IC50 in series [2] is less than 0.5 µM. In addition, the IC50 in the series with Hs578T [3] is no more than 12.5 µM. Also, the IC50 with Hs578T [4] is no more than 10 µM.
`COc1cc2c(Oc3ccc(NS(=O)(=O)c4csc5ccccc45)cc3F)ccnc2cc1OCCCN1CCN(C)CC1` [Example 116, Benzo[b]thiophene-3-sulfonic acid (3-fluoro-4-{6-methoxy-7-[3-(4-methyl-piperazin-1-yl)-propoxy]-quinolin-4-yloxy}-phenyl)-amide]: the melting point fell in the range of 112 to 114 °C. This compound also registered an IC50 in the series with Hs578T [1] of no more than 12.5 µM. For the same compound, the IC50 in series [2] is less than 0.5 µM. Also, in the series with Hs578T [3], the IC50 was no more than 12.5 µM. For the same compound, the IC50 with Hs578T [4] lay within 10 to 25 µM.
Compound `COc1cc2c(Oc3ccc(NS(=O)(=O)c4csc5ccccc45)cc3Cl)ccnc2cc1OCCCN1CCN(C)CC1` [Example 117, Benzo[b]thiophene-3-sulfonic acid (3-chloro-4-{6-methoxy-7-[3-(4-methyl-piperazin-1-yl)-propoxy]-quinolin-4-yloxy}-phenyl)-amide] gave a melting point of 98 to 101 °C. Besides, the IC50 in the series with Hs578T [1] is no more than 12.5 µM. Also, the IC50 in series [2] was less than 0.5 µM. The IC50 with Hs578T [3] was no more than 12.5 µM. Moreover, the IC50 with Hs578T [4] is 10 to 25 µM.
As to `COc1cc2c(Oc3ccc(NS(=O)(=O)c4cc(Cl)ccc4Cl)cc3Cl)ccnc2cc1OCCCN1CCN(C)CC1` [Example 124, 2,5-Dichloro-N-(3-chloro-4-{6-methoxy-7-[3-(4-methyl-piperazin-1-yl)-propoxy]-quinolin-4-yloxy}-phenyl)-benzenesulfonamide], the melting point lay in the range of 144 to 145 °C. In the series with Hs578T [1], this compound showed an IC50 of no more than 12.5 µM. This compound returned an IC50 in series [2] of less than 0.5 µM. Besides, the IC50 in the series on Hs578T [3] is no more than 12.5 µM. The IC50 in the series on Hs578T [4] is no more than 10 µM.
For the compound `COc1cc2c(Oc3cccc(NS(=O)(=O)c4cc(Cl)ccc4Cl)c3)ccnc2cc1OCCCN1CCN(C)CC1` [Example 127, 2,5-Dichloro-N-(3-{6-methoxy-7-[3-(4-methyl-piperazin-1-yl)-propoxy]-quinolin-4-yloxy}-phenyl)-benzenesulfonamide], the melting point was in the range of 111 to 113 °C. In the series on Hs578T [1], this compound gave an IC50 of no more than 12.5 µM. For the same compound, the IC50 in series [2] was in the range of 0.5 to 3 µM. Moreover, the IC50 in the series with Hs578T [3] was no more than 12.5 µM. In addition, the IC50 with Hs578T [4] is no more than 10 µM.
`COc1cc2c(Oc3cccc(NS(=O)(=O)c4c(Cl)cccc4Cl)c3)ccnc2cc1OCCCN1CCN(C)CC1` [Example 128, 2,6-Dichloro-N-(3-{6-methoxy-7-[3-(4-methyl-piperazin-1-yl)-propoxy]-quinolin-4-yloxy}-phenyl)-benzenesulfonamide] registered a melting point of 111 to 112 °C. Also, in the series on Hs578T [1], the IC50 is no more than 12.5 µM. The compound further yielded an IC50 in series [2] of 0.5 to 3 µM. Moreover, the IC50 in the series with Hs578T [3] is no more than 12.5 µM. Besides, in the series with Hs578T [4], the IC50 is no more than 10 µM.
`COc1cc2c(Oc3cccc(NS(=O)(=O)c4cc(Cl)sc4Cl)c3)ccnc2cc1OCCCN1CCN(C)CC1` [Example 134, 2,5-Dichloro-thiophene-3-sulfonic acid (3-{6-methoxy-7-[3-(4-methyl-piperazin-1-yl)-propoxy]-quinolin-4-yloxy}-phenyl)-amide] came in with a melting point of 177 to 178 °C. For the same compound, the IC50 with Hs578T [1] was no more than 12.5 µM. The same compound displayed an IC50 in series [2] of 0.5 to 3 µM. The IC50 in the series with Hs578T [3] is no more than 12.5 µM. The IC50 in the series with Hs578T [4] is no more than 10 µM.

The values above are taken from US9169241B2, “Quinolinyloxyphenylsulfonamides” (Max-Planck-Gesellschaft Zur Forderung der Wissenschaften …, priority 2009, dated 2015).
